The values that follow come from ChEMBL document CHEMBL3259800, “Design, synthesis and biological evaluation of novel 4-alkapolyenylpyrrolo[1,2-a]quinoxalines as antileishmanial agents--part III” (Eur J Med Chem, 2014).

Data set [1] in a line: Selectivity index, ratio of CC50 for mouse J774A1 cells to IC50 for Leishmania donovani MHOM/IN/00/DEVI promastigotes. The class given is functional, J774.A1.
Data set [2] is described as follows: Cytotoxicity against human HepG2 cells after 72 hrs by MTT assay. The class given is cell-based. On the technique in general: Tetrazolium assays rely on reduction of a dye to a coloured formazan, in cell work by metabolically active cells.
Data set [3] can be described thus: Selectivity index, ratio of CC50 for mouse J774A1 cells to IC50 for Leishmania major MHOM/IL/81/BNI promastigotes. The class given is functional, J774.A1.
Data set [4] in a line: Selectivity index, ratio of CC50 for human HepG2 cells to IC50 for chloroquine-resistant and mefloquine-sensitive Plasmodium falciparum W2. In kind it is functional.
In data set [5] the test system is Leishmania major. Briefly: Antimicrobial activity against Leishmania major MHOM/IL/81/BNI promastigotes after 96 hrs by resazurin-based assay. In kind it is functional, organism-based. (In general: The colour change of resazurin is a common sign of viable cells or microbes.)
Data set [6] relates to Plasmodium falciparum. Briefly: Antimicrobial activity against chloroquine-resistant and mefloquine-sensitive Plasmodium falciparum W2 infected in human erythrocytes after 48 hrs by SYBR Green I assay. In kind it is functional, organism-based. To be noted: W2, 48 h.
Data set [7] is described as follows: Selectivity index, ratio of CC50 for human HepG2 cells to IC50 for Leishmania mexicana MHOM/MX/95/NAN1 promastigotes. In kind it is functional.
Data set [8] is described as follows: Selectivity index, ratio of CC50 for mouse J774A1 cells to IC50 for Leishmania mexicana MHOM/MX/95/NAN1 promastigotes. In kind it is functional, J774.A1.
A short description of data set [9]: Selectivity index, ratio of CC50 for human HepG2 cells to IC50 for chloroquine and mefloquine-sensitive Plasmodium falciparum 3D7. The class given is functional.
The subject of data set [10] is Trypanosoma brucei brucei. Briefly: Antimicrobial activity against Trypanosoma brucei brucei Antat 1.1 after 24 hrs by haemocytometric analysis. Conditions: Antat 1.1, 24 h. The class given is functional, organism-based.
Data set [11] is described as follows: Cytotoxicity against mouse J774A1 cells after 72 hrs by MTT assay. The class given is cell-based, J774.A1.
Data set [12] in a line: Selectivity index, ratio of CC50 for human HepG2 cells to IC50 for Leishmania donovani MHOM/IN/00/DEVI promastigotes. The class given is functional.
The nature of data set [13]: Selectivity index, ratio of CC50 for human HepG2 cells to IC50 for Leishmania major MHOM/IL/81/BNI promastigotes. In kind it is functional.
Data set [14] can be described thus: Selectivity index, ratio of CC50 for human HepG2 cells to IC50 for Trypanosoma brucei brucei Antat 1.1. The class given is functional.
Data set [15] concerns Leishmania donovani. Briefly: Antimicrobial activity against Leishmania donovani MHOM/IN/00/DEVI promastigotes after 72 hrs by MTT assay. The class given is functional, organism-based.
Data set [16] has as its system Leishmania mexicana. Briefly: Antimicrobial activity against Leishmania mexicana MHOM/MX/95/NAN1 promastigotes after 96 hrs by resazurin-based assay. In kind it is functional, organism-based. Conditions: MHOM/MX/95/NAN1, 96 h.
The subject of data set [17] is Plasmodium falciparum. Briefly: Antimicrobial activity against chloroquine and mefloquine-sensitive Plasmodium falciparum 3D7 infected in human erythrocytes after 48 hrs by SYBR Green I assay. The class given is functional, organism-based. Conditions: 3D7, 48 h.

The term CC50 denotes the concentration that lowers cell viability or growth by half. A word on the IC50: it is the concentration that gives 50% inhibition. Read a high IC50 as a need for much substance.

In the case of `C/C=C/C=C/c1nc2ccccc2n2cccc12`, the “Ratio CC50/IC50” value in data set [1] was 0.4; in data set [3], 0.9; in data set [4], 4.1; in data set [7] it was 1.4; in [8], 0.6; in [9] it was 4.3. In addition, the “Ratio CC50/IC50” value in [12] is reported as 1.1; in data set [13], 2.2; in data set [14], 4.3. Further, the CC50 at 72 h is 10.3 µM in data set [2] and 4.3 µM in data set [11]. For the same molecule, the IC50 amounted to 4.7 µM in [5]; 2.5 µM in data set [6]; 2.4 µM in [10]; 9.8 µM in data set [15]; 7.6 µM in data set [16]; 2.4 µM in data set [17].

Take `C/C=C/C=C/c1nc2cc(OC)ccc2n2cccc12`: the “Ratio CC50/IC50” value is on record as 0.5 in data set [1]; 0.8 in [3]; 1.7 in data set [4]; 1.8 in [7]; 0.8 in data set [8]; 1.8 in [9]. Besides, the “Ratio CC50/IC50” value in data set [12] is 1.1; in data set [13], 1.9; in data set [14] it was 2.8. Further, the CC50 at 72 h came out at 5.8 µM in [2] and 2.5 µM in data set [11]. For the same molecule, the IC50 is 3 µM in data set [5]; 3.4 µM in data set [6]; 2.1 µM in [10]; 5.3 µM in data set [15]; 3.3 µM in data set [16]; 3.3 µM in [17].

As for `C/C=C/C=C/c1nc2ccc(OC)cc2n2cccc12`, the “Ratio CC50/IC50” value is reported as 1 in data set [1]; 2 in [3]; 3.6 in data set [4]; 2.4 in [7]; 1.4 in data set [8]; 5.8 in data set [9]. The “Ratio CC50/IC50” value was 1.6 in data set [12], 3.2 in data set [13] and 4.8 in data set [14]. Besides, the CC50 at 72 h worked out at 8.7 µM in data set [2] and 5.3 µM in [11]. The IC50 was 2.7 µM in [5]; 2.4 µM in [6]; 1.8 µM in data set [10]; 5.4 µM in data set [15]; 3.7 µM in [16]; 1.5 µM in [17].

For `CCC/C=C/C=C/c1nc2ccccc2n2cccc12`, the “Ratio CC50/IC50” value is 0.6 in data set [1]; 1.2 in [3]; 8.5 in data set [4]; 0.8 in [7]; 0.4 in [8]; 3.7 in data set [9]. For the same molecule, the “Ratio CC50/IC50” value was determined as 1.2 in data set [12] and 2.4 in data set [13]. The half-maximal cytotoxic concentration (CC50) at 72 h amounted to 9.3 µM in data set [2] and 4.7 µM in data set [11]. Further, the IC50 in data set [5] was 3.9 µM; in data set [6], 1.1 µM; in data set [15], 7.6 µM; in data set [16], 12.1 µM; in data set [17] it was 2.5 µM.

As for `CCC/C=C/C=C/c1nc2ccc(OC)cc2n2cccc12`, the “Ratio CC50/IC50” value in [1] turned out to be 1; in data set [3] it was 1.1; in data set [4], 1.8; in data set [7], 4; in data set [8] it was 1.5; in data set [9], 6.1. The “Ratio CC50/IC50” value in [12] was found to be 2.6; in data set [13], 2.7. Besides, the 50% cytotoxic concentration (CC50) at 72 h in data set [2] stood at 20.1 µM; in data set [11], 7.8 µM. The concentration for half-maximal inhibition (IC50) worked out at 7.4 µM in [5]; 11 µM in data set [6]; 7.6 µM in [15]; 5.1 µM in data set [16]; 3.3 µM in data set [17].

On to `CCC/C=C/C=C/c1nc2cccc(OC)c2n2cccc12`, for which the “Ratio CC50/IC50” value in data set [1] worked out at 0.7; in data set [3], 1.8; in data set [4] it was 13.4; in data set [7], 1.7; in [8], 0.7; in data set [9], 10.9. Also, the “Ratio CC50/IC50” value in data set [12] came out at 1.8; in data set [13], 4.5. Further, the CC50 at 72 h was determined as 17.4 µM in data set [2] and 7.1 µM in data set [11]. The half-maximal inhibitory concentration (IC50) in data set [5] came to 3.9 µM; in data set [6] it was 1.3 µM; in data set [15], 9.9 µM; in [16] it was 10.3 µM; in [17], 1.6 µM.

Regarding `CCCC/C=C/C=C/c1nc2ccccc2n2cccc12`, the “Ratio CC50/IC50” value in data set [1] is reported as 0.6; in data set [3] it was 2.4; in [4], 1.2; in data set [7], 1.3; in [8], 1.4; in [9], 1.3. The “Ratio CC50/IC50” value was 0.6 in [12] and 2.2 in data set [13]. Besides, the CC50 at 72 h was 8.2 µM in data set [2] and 8.8 µM in data set [11]. For the same molecule, the IC50 in data set [5] came out at 3.7 µM; in [6], 6.7 µM; in data set [15] it was 13.7 µM; in [16] it was 6.1 µM; in data set [17] it was 6.3 µM.

In the case of `CCCC/C=C/C=C/c1nc2cccc(OC)c2n2cccc12`, the “Ratio CC50/IC50” value was determined as 0.6 in data set [1]; 1.1 in data set [3]; 0.8 in data set [4]; 3.5 in [7]; 1.4 in data set [8]; 1.6 in data set [9]. For the same molecule, the “Ratio CC50/IC50” value turned out to be 1.4 in data set [12] and 2.7 in data set [13]. Also, the 50% cytotoxic concentration (CC50) at 72 h in data set [2] was found to be 15.8 µM; in data set [11], 6.4 µM. The half-inhibitory concentration (IC50) in data set [5] worked out at 5.8 µM; in data set [6], 19.8 µM; in data set [15], 11.6 µM; in data set [16] it was 4.5 µM; in [17], 9.8 µM.

For `C/C=C/C=C/c1nc2ccccc2n2ccc(OCC)c12`, the “Ratio CC50/IC50” value in [1] is given as 0.9; in [3] it was 2.3; in [4] it was 0.5; in data set [7], 0.5; in data set [8], 0.4; in data set [9] it was 0.6. Also, the “Ratio CC50/IC50” value was found to be 1.1 in data set [12] and 3 in [13]. Moreover, the results for the CC50 at 72 h in data set [2] and in data set [11] were 4.5 µM and 3.5 µM, respectively. For the same molecule, the IC50 in [5] turned out to be 1.5 µM; in data set [6] it was 9.6 µM; in data set [15], 4 µM; in data set [16], 9.6 µM; in data set [17], 7.7 µM.

Regarding `O[C@@H](c1cc(C(F)(F)F)nc2c(C(F)(F)F)cccc12)[C@H]1CCCCN1` [(S,R)-MEFLOQUINE], 0.015 µM corresponded to half-maximal inhibition in [6] (IC50).

For the molecule `N=C(N)c1ccc(OCCCCCOc2ccc(C(=N)N)cc2)cc1` [PENTAMIDINE], the “Ratio CC50/IC50” value is on record as 0.1 in data set [1]; 0.1 in data set [3]; 1 in data set [7]; 0.2 in data set [8]; 0.4 in [12]; 0.5 in [13]. The “Ratio CC50/IC50” value in data set [14] worked out at 46. Also, the half-inhibitory concentration (IC50) in data set [5] worked out at 4.3 µM; in data set [10] it was 0.05 µM; in data set [15], 5.5 µM; in data set [16] it was 2.4 µM. In data set [11], this molecule showed a half-maximal cytotoxic concentration (CC50) at 72 h of 0.56 µM.
